Measurements: the supplement of paper PMC10307832

Experiments:
Assay in all cases: relative viability (nuclei count vs DMSO), 5 days (fraction); higher = more cells survive
[1] = compound: CN(c1ncccc1CNc1nc(Nc2ccc3c(c2)CC(=O)N3)ncc1C(F)(F)F)S(C)(=O)=O + CC(C)C[C@H](NC(=O)[C@H](Cc1ccccc1)NC(=O)c1cnccn1)B(O)O [Bortezomib] (partner 0.002 µM)
Procedure, shortened: (§1)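 Values are medians from duplicate plates. Each reflects relative viability, defined as the nuclei count of treated wells over that of vehicle wells. Lung cancer cell lines in 1536-well plates were pin-tool dosed one day after seeding with one drug alone or with a fixed anchor-drug dose plus five library-drug doses (not always all listed) in √10 steps, then fixed, stained and imaged at 4× after 5 days.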

[2] = compound: CN(c1ncccc1CNc1nc(Nc2ccc3c(c2)CC(=O)N3)ncc1C(F)(F)F)S(C)(=O)=O + Cc1nc(NC(=O)N2CCC[C@H]2C(N)=O)sc1-c1ccnc(C(C)(C)C(F)(F)F)c1 [Alpelisib] (partner 2 µM)
Procedure, shortened: as §1

[3] = compound: CN(c1ncccc1CNc1nc(Nc2ccc3c(c2)CC(=O)N3)ncc1C(F)(F)F)S(C)(=O)=O + Nc1nc2[nH]cc(CCc3ccc(C(=O)N[C@@H](CCC(=O)O)C(=O)O)cc3)c2c(=O)[nH]1 [Pemetrexed] (partner 0.2 µM)
Procedure, shortened: as §1

[4] = compound: CN(c1ncccc1CNc1nc(Nc2ccc3c(c2)CC(=O)N3)ncc1C(F)(F)F)S(C)(=O)=O + O=C(c1cc(Cc2n[nH]c(=O)c3ccccc23)ccc1F)N1CCN(C(=O)C2CC2)CC1 [Olaparib] (partner 8 µM)
Procedure, shortened: as §1

| Cell Line | relative viability ([1]; first compound 0.01 µM) | relative viability ([1]; first compound 0.03162 µM) | relative viability ([1]; first compound 0.1 µM) | relative viability ([1]; first compound 0.3162 µM) | relative viability ([1]; first compound 1 µM) | relative viability ([2]; first compound 0.01 µM) | relative viability ([2]; first compound 0.03162 µM) | relative viability ([2]; first compound 0.1 µM) | relative viability ([2]; first compound 0.3162 µM) | relative viability ([2]; first compound 1 µM) | relative viability ([3]; first compound 0.01 µM) | relative viability ([3]; first compound 0.03162 µM) | relative viability ([3]; first compound 0.1 µM) | relative viability ([3]; first compound 0.3162 µM) | relative viability ([3]; first compound 1 µM) | relative viability ([4]; first compound 0.01 µM) | relative viability ([4]; first compound 0.03162 µM) | relative viability ([4]; first compound 0.1 µM) | relative viability ([4]; first compound 0.3162 µM) | relative viability ([4]; first compound 1 µM) |
| --- | --- | --- | --- | --- | --- | --- | --- | --- | --- | --- | --- | --- | --- | --- | --- | --- | --- | --- | --- | --- |
| NCI-H2023 | 0.985 | 1.02 | 0.963 | 0.945 | 0.938 | 0.521 | 0.677 | 0.668 | 0.59 | 0.507 | 0.181 | 0.241 | 0.221 | 0.228 | 0.214 | 0.458 | 0.476 | 0.467 | 0.359 | 0.407 |
| NCI-H2085 | 1.06 | 1.11 | 1.04 | 1 | 0.949 | 0.903 | 0.904 | 0.882 | 0.922 | 0.812 | 0.917 | 0.774 | 0.885 | 0.953 | 0.947 | 0.79 | 0.81 | 0.71 | 0.759 | 0.696 |
| NCI-H2087 | 1.13 | 0.699 | 0.882 | 0.807 | 0.768 | 1.14 | 1.18 | 1.11 | 1.12 | 1.19 | 0.695 | 0.751 | 0.685 | 0.728 | 0.584 | 0.634 | 0.639 | 0.614 | 0.464 | 0.668 |
| NCI-H2126 | 1.12 | 1.1 | 1.04 | 1.1 | 1.1 | 0.717 | 0.739 | 0.742 | 0.743 | 0.641 | 0.7 | 0.718 | 0.615 | 0.697 | 0.632 | 0.879 | 1.01 | 0.865 | 0.867 | 0.795 |
| NCI-H2228 | 0.817 | 1.24 | 1.05 | 1.06 | 1.02 | 0.634 | 0.766 | 0.857 | 0.633 | 0.701 | 0.368 | 0.343 | 0.366 | 0.313 | 0.355 | 0.619 | 1.01 | 0.665 | 0.766 | 0.539 |
| NCI-H2347 | 1.08 | 0.93 | 0.927 | 0.801 | 0.45 | 1.06 | 0.973 | 0.893 | 0.972 | 0.817 | 0.474 | 0.434 | 0.403 | 0.44 | 0.399 | 0.598 | 0.546 | 0.525 | 0.515 | 0.443 |
| NCI-H2405 | 1.05 | 0.972 | 1.03 | 0.865 | 0.813 | 0.837 | 0.757 | 0.719 | 0.72 | 0.727 | 1.06 | 1.01 | 0.984 | 0.924 | 0.832 | 0.879 | 0.922 | 0.78 | 0.702 | 0.641 |
| NCI-H3122 | 1.04 | 1.03 | 1.01 | 0.968 | 0.891 | 0.748 | 0.982 | 0.684 | 0.822 | 0.728 | 0.202 | 0.194 | 0.175 | 0.181 | 0.193 | 0.658 | 0.65 | 0.604 | 0.568 | 0.574 |
| PC-3 [JPC-3] | 0.853 | 0.801 | 0.827 | 0.855 | 0.829 | 0.993 | 1.14 | 0.941 | 1.02 | 0.952 | 1.02 | – | 1.13 | 1.07 | 1.18 | 1.13 | – | 1.05 | 1.08 | 1.04 |
| PC-14 | 1.02 | 0.935 | 0.984 | 0.799 | 0.821 | 1.02 | 1.07 | 0.982 | 0.951 | 0.869 | 0.162 | 0.135 | 0.134 | 0.128 | 0.134 | 0.38 | 0.282 | 0.271 | 0.261 | 0.243 |
| RERF-LC-KJ | 1.08 | 1.23 | 1.11 | 1.13 | 0.999 | 0.838 | 0.955 | 0.813 | 0.765 | 0.825 | 0.428 | 0.355 | 0.496 | 0.515 | 0.575 | 0.983 | 0.945 | 0.97 | 0.849 | 0.927 |
| SK-LU-1 | 1.33 | 1.28 | 0.839 | 1.24 | 1.12 | 0.929 | 1.25 | 0.988 | 0.988 | 0.928 | 1.04 | 0.903 | 0.954 | 1 | 0.88 | 0.411 | 0.433 | 0.38 | 0.408 | 0.445 |
| SW 1573 | 1.17 | 0.898 | 0.977 | 1.05 | 1.11 | 0.73 | 1.08 | 0.628 | 0.922 | 0.778 | 0.869 | 0.928 | 0.826 | 0.934 | 0.837 | 0.491 | 0.682 | 0.443 | 0.517 | 0.398 |
| UMC-11 | 0.795 | 0.634 | 0.649 | 0.589 | 0.672 | 1 | 1.06 | 0.901 | 0.809 | 0.787 | 0.743 | 0.831 | 0.82 | 0.799 | 0.687 | 0.413 | 0.545 | 0.364 | 0.439 | 0.363 |
